Key:
[1] = biological target: T1, ERK4 (Homo sapiens, UniProt P31152); experiment: KinomeScan; format: binding; details: read-out: % Control
T1 construct: purchased DiscoveRx (Fremont, CA)

[2] = biological target: T2, VPAC1 (Homo sapiens, UniProt P32241); experiment: GPCR Profiler; format: cell-based
T2 construct: host or cells: Chem-1 cells expressing Galpha15

[3] = biological target: T3, MKNK1 (Homo sapiens, UniProt Q9BUB5); experiment: KinomeScan; format: binding; details: read-out: % Control
T3 construct: purchased DiscoveRx

[4] = biological target: T4, YSK1 (Homo sapiens, UniProt O00506); experiment: KinomeScan; format: binding; details: read-out: % Control
T4 construct: purchased DiscoveRx

[5] = biological target: T5, SNARK (Homo sapiens, UniProt Q9H093); experiment: KinomeScan; format: binding; details: read-out: % Control
T5 construct: purchased DiscoveRx (Fremont, CA)

[6] = biological target: T6, PRKX (Homo sapiens, UniProt P51817); experiment: KinomeScan; format: binding; details: read-out: % Control
T6 construct: purchased DiscoveRx (Fremont, CA)

[7] = biological target: T7, ADCK3 (Homo sapiens, UniProt Q8NI60); experiment: KinomeScan; format: binding; details: read-out: % Control
T7 construct: purchased DiscoveRx (Fremont, CA)

[8] = biological target: T8, ZAP70 (Homo sapiens, UniProt P43403); experiment: KinomeScan; format: binding; details: read-out: % Control
T8 construct: purchased DiscoveRx

[9] = biological target: T9, IKK-beta (Homo sapiens, UniProt O14920); experiment: KinomeScan; format: binding; details: read-out: % Control
T9 construct: purchased DiscoveRx (Fremont, CA)

[10] = biological target: T10, KIT (Homo sapiens, UniProt P10721); experiment: KinomeScan; format: binding; details: read-out: % Control
T10 construct: purchased DiscoveRx

[11] = biological target: T11, RSK3(Kin.Dom.2-C-terminal) (Homo sapiens, UniProt Q15349); experiment: KinomeScan; format: binding; details: read-out: % Control
T11 construct: RSK3(Kin.Dom.2-C-terminal); purchased DiscoveRx (Fremont, CA)

[12] = biological target: T12, PYK2 (Homo sapiens, UniProt Q14289); experiment: KinomeScan; format: binding; details: read-out: % Control
T12 construct: purchased DiscoveRx (Fremont, CA)

[13] = biological target: T13, BMPR1B (Homo sapiens, UniProt O00238); experiment: KinomeScan; format: binding; details: read-out: % Control
T13 construct: purchased DiscoveRx (Fremont, CA)

[14] = biological target: T14, MEK3 (Homo sapiens, UniProt P46734); experiment: KinomeScan; format: binding; details: read-out: % Control
T14 construct: purchased DiscoveRx (Fremont, CA)

[15] = biological target: T15, RIOK1 (Homo sapiens, UniProt Q9BRS2); experiment: KinomeScan; format: binding; details: read-out: % Control
T15 construct: purchased DiscoveRx (Fremont, CA)

[16] = biological target: T16, PRKR (Homo sapiens, UniProt P19525); experiment: KinomeScan; format: binding; details: read-out: % Control
T16 construct: purchased DiscoveRx (Fremont, CA)

[17] = biological target: T17, EGFR(L861Q) (Homo sapiens, UniProt P00533, L861Q); experiment: KinomeScan; format: binding; details: read-out: % Control
T17 construct: purchased DiscoveRx (Fremont, CA), KinomeScan service

[18] = biological target: T18, PRKCI (Homo sapiens, UniProt P41743); experiment: KinomeScan; format: binding; details: read-out: % Control
T18 construct: purchased DiscoveRx (Fremont, CA)

[19] = biological target: T19, ETB (Homo sapiens, UniProt P24530); experiment: GPCR Profiler; format: cell-based
T19 construct: host or cells: Chem-1 cells expressing Gα15

[20] = biological target: T20, GPR43 (Homo sapiens, UniProt O15552); experiment: GPCR Profiler; format: cell-based
T20 construct: host or cells: Chem-1 cells with promiscuous Gα15

[21] = biological target: T21, BRAF (Homo sapiens, UniProt P15056); experiment: KinomeScan; format: binding; details: read-out: % Control
T21 construct: purchased DiscoveRx (Fremont, CA)

[22] = test system: REC-1; experiment: Cell Titer-Glo viability, B-cell lymphoma; format: cell-based; details: 72 hours
Description: OGM2 kills wide variety of cancer cell types. Cell sensitivity can be classified in to Very Sensitive (LC50<2 μM), Sensitive (LC50=2 to 10 μM), Mildly Sensitive (LC50>10 μM), and Refractory (no killing at 10 μM). The listed established cell were incubated with OGM2 at 2 μM or 10 μM for 72 hours under standard cell culture conditions, and relative cell number was assessed using Cell Titer-Glo Luminescent Cell Viability Assay (Promega™) following the manufacturer's instructions. Luminescence was determined using a Cytation 5 reader and Gen5 software package (BioTek™).
Cancer cells, which are very sensitive to killing by OGM2 (LCs <2 μM), with reported mRNA expression of GPR68 and the related proton sensing receptor GPR4. LC50's (concentrations causing 50% lethality) were determined using CellTiter-Glo (Promega™, G7570). Cells were plated in 12-well plates (CELLTREAT Scientific Products, 229112) in 1 ml of DMEM with high glucose, GlutaMAX, HEPES, or RPMI 1640 with Penicillin-Streptomycin (ThermoFisher™, 10564029, 11875119 and 15140122) and 10% FBS. Cells were incubated overnight at 37° C. in 5% CO2. Then 1 mL of fresh media was added with DMSO, OGM, or positive control (Erastin; APExBIO Technology, LLC, B1524) and cells incubated for 3 days. On the third day, all media was removed, cells were rinsed with 1×PBS, PBS was removed, and 200 μL of 1× Passive Lysis Buffer (Promega™, E1941) was added to each well. […]. […] Plates were briefly spun down and read on a GloMax-Multi Detection System (Promega™).
The cells listed in the tables above were incubated with OGM2 at 2 μM or 10 μM for 72 hours under standard cell culture conditions, and relative cell number was assessed using Cell Titer-Glo Luminescent Cell Viability Assay (Promega™) following the manufacturer's instructions. Luminescence was determined using a Cytation 5 reader and Gen5 software package (BioTek™). […] The consensus normalized expression value (“nTPM”=normalize transcript per million) was calculated as the maximum nTPM value for each gene in the two data sources.

[23] = test system: A549; experiment: Crystal violet viability, 24 hours; format: cell-based
Description: A549 lung cancer cells were plated at different concentrations of cell per well in a 96-well plate. On the following day cells were treated with increasing doses of OGM2. Twenty-four hours later cells viability was assayed with crystal violet and normalized to untreated.

T2 sequence (P32241 31-457): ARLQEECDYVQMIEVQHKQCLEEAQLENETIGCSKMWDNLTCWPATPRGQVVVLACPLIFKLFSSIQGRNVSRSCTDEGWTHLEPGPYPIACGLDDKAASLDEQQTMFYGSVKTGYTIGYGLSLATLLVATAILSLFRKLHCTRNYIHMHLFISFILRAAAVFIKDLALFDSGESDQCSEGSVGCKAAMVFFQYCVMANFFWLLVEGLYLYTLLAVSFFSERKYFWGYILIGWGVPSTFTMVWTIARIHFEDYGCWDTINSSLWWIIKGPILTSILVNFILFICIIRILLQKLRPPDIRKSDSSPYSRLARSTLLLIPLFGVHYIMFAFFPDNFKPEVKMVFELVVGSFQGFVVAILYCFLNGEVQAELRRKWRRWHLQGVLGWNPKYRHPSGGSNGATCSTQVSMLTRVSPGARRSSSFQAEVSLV
T20 sequence (O15552 whole entry, species assumed): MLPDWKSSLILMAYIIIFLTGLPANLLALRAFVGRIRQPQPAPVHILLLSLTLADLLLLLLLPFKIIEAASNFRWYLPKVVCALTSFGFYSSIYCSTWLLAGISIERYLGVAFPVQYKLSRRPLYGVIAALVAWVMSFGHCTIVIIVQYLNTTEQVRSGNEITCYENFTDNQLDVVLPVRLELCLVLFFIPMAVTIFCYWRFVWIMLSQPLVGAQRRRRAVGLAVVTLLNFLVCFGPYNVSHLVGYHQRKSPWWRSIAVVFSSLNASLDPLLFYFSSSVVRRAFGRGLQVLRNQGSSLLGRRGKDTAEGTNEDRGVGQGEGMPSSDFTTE
T19 sequence (P24530 27-442): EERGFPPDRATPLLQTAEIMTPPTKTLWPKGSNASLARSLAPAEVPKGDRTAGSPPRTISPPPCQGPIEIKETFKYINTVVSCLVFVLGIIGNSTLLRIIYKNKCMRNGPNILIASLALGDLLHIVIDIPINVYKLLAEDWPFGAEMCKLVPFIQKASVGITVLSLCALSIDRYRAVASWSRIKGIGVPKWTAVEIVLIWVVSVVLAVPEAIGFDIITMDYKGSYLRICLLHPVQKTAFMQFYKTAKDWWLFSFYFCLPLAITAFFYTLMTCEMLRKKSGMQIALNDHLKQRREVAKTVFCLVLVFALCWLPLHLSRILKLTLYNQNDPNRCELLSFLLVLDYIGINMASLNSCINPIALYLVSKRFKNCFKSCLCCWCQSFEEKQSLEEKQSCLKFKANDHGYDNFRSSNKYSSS
T3 sequence (Q9BUB5 whole entry): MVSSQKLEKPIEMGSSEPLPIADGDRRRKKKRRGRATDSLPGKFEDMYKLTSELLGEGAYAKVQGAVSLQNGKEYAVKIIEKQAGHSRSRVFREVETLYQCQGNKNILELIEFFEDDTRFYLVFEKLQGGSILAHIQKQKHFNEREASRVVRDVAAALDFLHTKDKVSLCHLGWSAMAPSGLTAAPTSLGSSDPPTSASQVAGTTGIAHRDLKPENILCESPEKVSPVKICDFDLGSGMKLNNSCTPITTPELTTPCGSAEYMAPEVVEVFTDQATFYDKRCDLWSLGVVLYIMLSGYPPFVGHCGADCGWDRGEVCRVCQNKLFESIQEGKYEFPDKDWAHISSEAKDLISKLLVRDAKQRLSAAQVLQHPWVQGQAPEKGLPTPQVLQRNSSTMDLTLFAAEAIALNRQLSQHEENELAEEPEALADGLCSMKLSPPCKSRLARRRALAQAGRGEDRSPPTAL
T1 sequence (P31152 whole entry): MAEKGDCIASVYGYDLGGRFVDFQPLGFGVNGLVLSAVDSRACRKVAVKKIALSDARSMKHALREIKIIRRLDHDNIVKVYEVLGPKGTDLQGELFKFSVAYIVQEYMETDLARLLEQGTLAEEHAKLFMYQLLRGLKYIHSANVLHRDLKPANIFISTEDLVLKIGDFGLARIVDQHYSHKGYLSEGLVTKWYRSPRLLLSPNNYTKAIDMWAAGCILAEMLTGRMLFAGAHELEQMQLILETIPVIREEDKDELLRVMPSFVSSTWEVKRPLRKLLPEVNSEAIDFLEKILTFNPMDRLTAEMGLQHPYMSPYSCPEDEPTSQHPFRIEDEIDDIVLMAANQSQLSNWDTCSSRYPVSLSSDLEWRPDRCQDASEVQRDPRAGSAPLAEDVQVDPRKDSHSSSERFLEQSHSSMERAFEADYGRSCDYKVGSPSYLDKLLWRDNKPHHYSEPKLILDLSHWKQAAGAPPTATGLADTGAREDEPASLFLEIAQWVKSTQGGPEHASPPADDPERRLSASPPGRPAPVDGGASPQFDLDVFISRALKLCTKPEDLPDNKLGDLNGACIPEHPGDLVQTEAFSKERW
T13 sequence (O00238 14-502): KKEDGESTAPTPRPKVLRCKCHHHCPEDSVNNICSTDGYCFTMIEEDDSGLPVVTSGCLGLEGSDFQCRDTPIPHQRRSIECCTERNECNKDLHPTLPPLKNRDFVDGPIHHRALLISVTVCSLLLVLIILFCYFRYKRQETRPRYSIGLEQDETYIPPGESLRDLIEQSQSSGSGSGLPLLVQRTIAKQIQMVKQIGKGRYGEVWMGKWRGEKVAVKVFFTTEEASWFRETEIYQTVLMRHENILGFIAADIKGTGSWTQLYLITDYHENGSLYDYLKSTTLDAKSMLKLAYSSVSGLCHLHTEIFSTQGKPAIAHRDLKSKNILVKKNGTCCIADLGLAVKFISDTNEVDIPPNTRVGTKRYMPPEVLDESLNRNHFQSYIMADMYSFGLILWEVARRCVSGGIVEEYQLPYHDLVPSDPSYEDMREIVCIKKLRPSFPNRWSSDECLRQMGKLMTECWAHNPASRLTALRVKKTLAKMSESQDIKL
T18 sequence (P41743 whole entry): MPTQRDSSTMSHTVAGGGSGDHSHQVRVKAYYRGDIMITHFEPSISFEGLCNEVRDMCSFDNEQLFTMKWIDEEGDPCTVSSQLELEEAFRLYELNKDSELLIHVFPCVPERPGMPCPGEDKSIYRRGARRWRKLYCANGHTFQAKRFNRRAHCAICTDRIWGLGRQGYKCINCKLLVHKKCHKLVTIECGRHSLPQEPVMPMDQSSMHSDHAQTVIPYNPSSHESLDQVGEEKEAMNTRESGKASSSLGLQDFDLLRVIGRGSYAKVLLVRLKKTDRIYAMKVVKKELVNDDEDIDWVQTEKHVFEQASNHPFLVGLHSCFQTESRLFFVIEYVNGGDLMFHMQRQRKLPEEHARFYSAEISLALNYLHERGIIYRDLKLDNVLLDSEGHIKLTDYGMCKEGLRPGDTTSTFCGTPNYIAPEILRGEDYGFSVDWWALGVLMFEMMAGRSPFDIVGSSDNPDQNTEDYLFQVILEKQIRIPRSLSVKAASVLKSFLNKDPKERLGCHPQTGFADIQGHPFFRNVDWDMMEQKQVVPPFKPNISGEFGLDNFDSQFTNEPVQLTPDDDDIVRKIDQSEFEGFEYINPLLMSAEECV
T7 sequence (Q8NI60 163-647): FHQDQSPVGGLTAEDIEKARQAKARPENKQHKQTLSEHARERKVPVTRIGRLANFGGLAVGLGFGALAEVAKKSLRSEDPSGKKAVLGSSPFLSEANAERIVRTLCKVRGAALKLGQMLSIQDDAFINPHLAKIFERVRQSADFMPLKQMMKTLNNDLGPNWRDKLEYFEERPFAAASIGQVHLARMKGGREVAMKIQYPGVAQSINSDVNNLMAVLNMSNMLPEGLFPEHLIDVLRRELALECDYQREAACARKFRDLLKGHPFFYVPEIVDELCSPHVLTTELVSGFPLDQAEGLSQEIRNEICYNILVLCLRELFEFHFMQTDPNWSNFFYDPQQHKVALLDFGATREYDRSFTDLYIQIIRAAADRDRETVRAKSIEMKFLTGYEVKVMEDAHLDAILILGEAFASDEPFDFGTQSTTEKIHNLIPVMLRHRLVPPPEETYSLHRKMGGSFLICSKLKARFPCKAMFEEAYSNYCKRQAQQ
T14 sequence (P46734 whole entry): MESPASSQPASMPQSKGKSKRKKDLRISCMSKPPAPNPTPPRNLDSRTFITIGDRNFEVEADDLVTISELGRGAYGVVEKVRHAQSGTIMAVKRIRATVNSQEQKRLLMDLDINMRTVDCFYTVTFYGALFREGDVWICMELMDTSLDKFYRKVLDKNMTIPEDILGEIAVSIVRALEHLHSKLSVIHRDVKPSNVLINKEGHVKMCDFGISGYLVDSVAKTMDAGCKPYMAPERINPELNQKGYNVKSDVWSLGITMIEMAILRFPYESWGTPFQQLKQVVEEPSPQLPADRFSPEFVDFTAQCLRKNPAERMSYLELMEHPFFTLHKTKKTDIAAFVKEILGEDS
T16 sequence (P19525 whole entry): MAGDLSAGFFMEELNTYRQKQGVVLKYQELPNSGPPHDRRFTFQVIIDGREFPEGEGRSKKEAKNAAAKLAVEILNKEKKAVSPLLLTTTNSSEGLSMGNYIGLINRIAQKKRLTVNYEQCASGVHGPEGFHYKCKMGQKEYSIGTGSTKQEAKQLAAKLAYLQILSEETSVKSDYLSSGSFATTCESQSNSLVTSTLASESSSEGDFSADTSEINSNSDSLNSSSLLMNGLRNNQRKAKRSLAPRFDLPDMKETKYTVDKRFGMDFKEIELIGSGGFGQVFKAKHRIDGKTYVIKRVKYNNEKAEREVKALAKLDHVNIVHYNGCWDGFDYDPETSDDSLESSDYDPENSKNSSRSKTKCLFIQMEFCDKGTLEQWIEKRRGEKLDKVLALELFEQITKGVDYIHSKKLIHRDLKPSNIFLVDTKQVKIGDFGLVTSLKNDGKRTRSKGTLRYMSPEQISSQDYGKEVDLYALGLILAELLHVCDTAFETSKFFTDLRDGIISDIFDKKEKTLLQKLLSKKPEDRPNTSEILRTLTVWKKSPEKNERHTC
T11 sequence (Q15349 415-672 limits assumed): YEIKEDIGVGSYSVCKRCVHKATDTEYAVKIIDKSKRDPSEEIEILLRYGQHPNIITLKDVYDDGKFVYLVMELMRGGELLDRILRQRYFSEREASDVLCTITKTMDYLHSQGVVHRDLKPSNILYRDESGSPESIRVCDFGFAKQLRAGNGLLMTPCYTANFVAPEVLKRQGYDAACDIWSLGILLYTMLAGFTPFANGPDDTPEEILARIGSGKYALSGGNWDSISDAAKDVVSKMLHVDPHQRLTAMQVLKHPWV

CCc1ccc2c(c1)C1(NN=C(c3cccc4ccccc34)S1)C(=O)N2 (stereo not shown) [OGM1, 5-ethyl-5′-naphthalen-1-ylspiro[1H-indole-3,2′-3H-1,3,4-thiadiazole]-2-one]
remaining binding at 10 µM [1]: 93%
Antagonism ([2]; 10 uM): 16.6
Agonism ([2]; 12.5 uM): 0
remaining binding at 10 µM [3]: 90%
remaining binding at 10 µM [4]: 80%
remaining binding at 10 µM [5]: 100%
remaining binding at 10 µM [6]: 98%
remaining binding at 10 µM [7]: 100%
remaining binding at 10 µM [8]: 73%
remaining binding at 10 µM [9]: 92%
remaining binding at 10 µM [10]: 79%
remaining binding at 10 µM [11]: 54%
remaining binding at 10 µM [12]: 100%
remaining binding at 10 µM [13]: 81%
remaining binding at 10 µM [14]: 100%
remaining binding at 10 µM [15]: 100%
remaining binding at 10 µM [16]: 59%
remaining binding at 10 µM [17]: 100%
remaining binding at 10 µM [18]: 94%
Antagonism ([19]; 10 uM): −1.6
Agonism ([19]; 12.5 uM): 9.1
Antagonism ([20]; 10 uM): 6.4
Agonism ([20]; 12.5 uM): −0.2
remaining binding at 10 µM [21]: 96%

CCc1ccc2c(c1)C1(NN=C(c3ccccc3)S1)C(=O)N2 (stereo not shown) [OGM2]
% Survival 2 μM OGM [22]: 0.7%
% Survival 10 μM OGM [22]: 0.0%
CC50 ([22]; Homo sapiens, Rec1, read-out: LC50 (the source's name)): < 2 µM
toxicity [23]: relatively High doses of OGM2 are necessary for toxicity in A549 cells
